Measured values: patent US20230381330A1, “ENZYME-ACTIVATED SERUM EXTENDED HALF-LIFE THERAPEUTIC CONJUGATES” (Avacta Life Sciences Limited, priority 2020, published 2023)

Experiments:
rats = assay: EC50 / maximum tolerated dose studies in rats; type: in vivo, rat; conditions: talabostat administered alone, FIG. 4A
Protocol: (§1) Half-maximal effective concentration (EC50) studies were undertaken to examine the difference between mice and rats administered talabostat alone (FIG. 4A) and mice and rats administered the therapeutic conjugates comprising talabostat (FIG. 4B). When talabostat is administered alone, the talabostat maximum tolerated dose (MTD) is about 3 mg/m^2 in a mouse tumor model and 0.18 mg/m^2 in rats. That is, the talabostat MTD is 1/17 the tumor model EC50 (FIG. 4A). […] Talabostat, as part of the therapeutic conjugate, can be administered to rats and mice at therapeutically effective doses.

mouse tumor model = assay: EC50 / maximum tolerated dose studies in mice; type: in vivo; conditions: FIG. 4A/4B
Protocol: as §1

[1] = system: J774A.1 mouse macrophage cell line cells; assay: LDH release (pyroptosis) in J774A.1 cells with or without rhFAPα; type: cell-based; conditions: serial 10-fold dilutions, rhFAPα 25 nM, 24 hours, FIG. 17
Protocol: In further in vitro studies, several conjugates were tested for their ability to induce pyroptosis in J774 cells in the absence and presence of FAPα. Briefly, J774A.1 mouse macrophage cell line cells were cultured in triplicate wells with serial 10-fold dilutions of either VbP (data not shown) or one of the FAP-activated I-DASH inhibitors (Hu IgG1 Fc-6325, Hu IgG1-6325, MSA-6325, SQT-Gly V.2-6325, SQT-Gly CF-6325 or SQT-Gly CG-6325) in the presence or absence of rhFAPα at a final concentration of 25 nM for 24 hours. Each experiment included an untreated control. Following the incubation, the levels of lactate dehydrogenase (LDH, a marker of pyroptosis) released into culture supernatants were measured using the CytoTox 96 Non-radioactive Cytotoxicity Assay according to the manufacturer's instructions. The results are shown in FIG. 17 as fold-increase in LDH release.

G-CSF = conditions: mouse, in vivo; cited from earlier work

CC(C)[C@H](N)C(=O)N1CCC[C@H]1B(O)O [talabostat, Val-boroPro]
maximum tolerated dose (MTD) (rats; rats): 0.18 mg/m^2 | MTD as fraction of the tumor model EC50 (rats): 1/17 | maximum tolerated dose (MTD) (mouse tumor model): about 3 mg/m^2 | differentiation of fold-increase in LDH release with vs without FAPα [1]: not the case | serum G-CSF response (G-CSF): large serum G-CSF response
